For this assay, the target named is Neuronal acetylcholine receptor; alpha9/alpha10 (Homo sapiens, UniProt Q9GZZ6+Q9UGM1). In words: Inhibition of human alpha9/alpha10 nACHR (1:1) expressed in Xenopus laevis oocyte assessed as inhibition of ACh induced channel current measured for 2 to 5 days at -80 mV holding potential by two electrode voltage clamp method. In general terms: In two-electrode clamp one electrode senses voltage and the other passes current.

From ChEMBL document CHEMBL4219259, “Molecular Determinants Conferring the Stoichiometric-Dependent Activity of α-Conotoxins at the Human α9α10 Nicotinic Acetylcholine Receptor Subtype” (J Med Chem, 2018) come the findings set out here.

Peptide text beside a SMILES is read from it.

Broadly, the IC50 is the concentration needed to halve the response being measured.

Neuronal acetylcholine receptor; alpha9/alpha10, sequence (Q9UGM1 whole entry): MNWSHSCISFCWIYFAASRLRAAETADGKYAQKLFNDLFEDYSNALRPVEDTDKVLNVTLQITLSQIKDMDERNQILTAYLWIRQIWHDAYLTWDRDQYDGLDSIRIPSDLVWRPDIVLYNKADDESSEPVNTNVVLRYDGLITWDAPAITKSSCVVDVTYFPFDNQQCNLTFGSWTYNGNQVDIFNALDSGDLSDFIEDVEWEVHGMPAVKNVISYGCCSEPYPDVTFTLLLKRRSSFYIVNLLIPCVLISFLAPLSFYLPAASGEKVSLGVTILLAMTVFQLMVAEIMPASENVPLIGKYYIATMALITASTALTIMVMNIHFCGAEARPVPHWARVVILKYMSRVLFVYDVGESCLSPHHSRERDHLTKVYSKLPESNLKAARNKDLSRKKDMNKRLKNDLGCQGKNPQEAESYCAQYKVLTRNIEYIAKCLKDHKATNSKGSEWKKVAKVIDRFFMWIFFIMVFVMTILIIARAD
Neuronal acetylcholine receptor; alpha9/alpha10, sequence (Q9GZZ6 whole entry): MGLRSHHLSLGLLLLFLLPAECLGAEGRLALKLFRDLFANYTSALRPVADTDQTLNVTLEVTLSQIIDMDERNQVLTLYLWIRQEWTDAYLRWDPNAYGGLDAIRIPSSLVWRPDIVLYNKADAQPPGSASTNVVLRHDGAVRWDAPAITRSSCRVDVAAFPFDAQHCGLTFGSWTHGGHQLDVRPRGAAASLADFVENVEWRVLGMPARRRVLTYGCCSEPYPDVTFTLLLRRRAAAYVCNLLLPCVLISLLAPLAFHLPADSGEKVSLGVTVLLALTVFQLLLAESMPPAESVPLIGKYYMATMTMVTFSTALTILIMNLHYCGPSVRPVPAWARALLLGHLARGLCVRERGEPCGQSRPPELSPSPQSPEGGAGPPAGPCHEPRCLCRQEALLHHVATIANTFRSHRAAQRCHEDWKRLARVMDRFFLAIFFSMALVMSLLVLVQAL

Take `CC(C)[C@@H]1NC(=O)[C@H](CO)NC(=O)[C@@H]2CSSC[C@H](NC(=O)CN)C(=O)N[C@@H](CSSC[C@@H](C(N)=O)NC(=O)[C@H](CCCCN)NC(=O)[C@H](CC(N)=O)NC(=O)[C@@H]3CCCN3C(=O)[C@H](Cc3ncc[nH]3)NC(=O)[C@H](CC(=O)O)NC1=O)C(=O)N[C@@H](CO)C(=O)N[C@@H](Cc1ncc[nH]1)C(=O)N1CCC[C@H]1C(=O)N[C@@H](C)C(=O)N2` (HELM PEPTIDE1{G.C.C.S.[O=C([C@H](Cc1ncc[nH]1)N[*:1])[*:2]].P.A.C.S.V.D.[O=C([C@H](Cc1ncc[nH]1)N[*:1])[*:2]].P.N.K.C.[am]}$PEPTIDE1,PEPTIDE1,2:R3-8:R3|PEPTIDE1,PEPTIDE1,3:R3-16:R3$$$V2.0): the 50% inhibitory concentration (IC50) was 22.2 µM.
